We go through one molecule from patent EP4578855A1, “PROLYL HYDROXYLASE INHIBITOR AND USE THEREOF” (Suzhong Pharmaceutical Group Co., Ltd., priority 2022, dated 2024).

Data set [1] can be described thus: Pharmacokinetic evaluation after intravenous injection or intragastric administration, plasma LC-MS/MS. It is filed as in vivo, SD rats. An excerpt: After the compounds were given to SD rats by intravenous injection or intragastric administration, concentrations of related compounds in plasma were detected by an LC-MS/MS method, and pharmacokinetics and absolute bioavailability of the compounds prepared in Embodiments 13 and 14 in the rats were preliminarily evaluated.
2. Line: Sprague Dawley rats, sex: male, weight: 200 g to 250 g
Pharmacokinetic characteristics of rodents after intravenous injection and oral administration of the compounds were tested by a standard scheme. In the experiment, a candidate compound was prepared into a clear solution, and given to the rats by single intravenous injection and intragastric administration. A solvent for intravenous injection was a certain proportion of N,N-dimethylacetamide (DMA) and 10% Solutol HS15 solution, and a solvent for oral administration was a certain proportion of sodium carboxymethyl cellulose (CMC) suspension. 5 minutes, 15 minutes, 30 minutes, 1 hour, 2 hours, 4 hours, 6 hours, 8 hours, 10 hours and 24 hours after drug administration, blood samples of the animals were respectively collected into K2EDTA anticoagulation tubes, which were temporarily stored on ice until centrifugation.

Another data set deals with EPO (erythropoietin). In words: Pharmacological evaluation: influence of continuous administration on EPO level. It is filed as in vivo, SD rats. How it is done:
This experiment was intended to evaluate an influence of continuous administration of the compounds prepared in Embodiments 12, 13 and 14 on EPO (erythropoietin) in SD rats.
• Line: SD (Sprague Dawley) • Weeks of age and weight: 8 weeks, weight 200 g to 220 g • Sex: male • Animal source: Beijing Vital River Laboratory Animal Technology Co., Ltd.
• Positive drug: Enarodustat • Description: commercialized drugs approved for marketing in Japan • Specification and content: 2 mg JTZ-951(Enarodustat), 140 capsules/box
After a week of adaptive feeding, SD rats were randomly divided into 3 groups, 6 rats in each group, which were namely a blank group, a positive drug group (Enarodustat) and a group of compound in Embodiment 12. An Enarodustat tablet was crushed by a mortar, then quantitatively added with 0.5% methyl cellulose, and magnetically stirred and mixed evenly; and the compound prepared in Embodiment 12 was weighed, then quantitatively added with 0.5% methyl cellulose, and magnetically stirred and mixed evenly. […] The drug was given once a day for 14 consecutive days, and blood was taken to measure an EPO level 4 hours after the drug was given on the 14th day.

Data set [2] is described as follows: Subacute toxicity test, 14 consecutive days. The conditions noted are these: SD rats, 10 mg/kg once a day for 14 consecutive days, in words. It is filed as in vivo. An excerpt:
A proper amount of the compound in Embodiment 13 and a proper amount of the compound in Embodiment 14 were weighed by a balance and respectively placed into proper glass bottles, then DMSO, Solutol HS-15 and 0.9% physiological saline (in a ratio of v: v: v = 5%: 10%: 85%) were sequentially added into the glass bottles, and vortexed and stirred, and a drug dissolution condition was continuously concerned in the stirring process until the compounds were completely dissolved/suspended. Finally, drug solutions of the compound in Embodiment 13 and the compound in Embodiment 14 with a concentration of 0.67 mg/mL were prepared for current use.
An animal room was well ventilated, equipped with an air-conditioner, kept at a temperature of 20°C and 25°C and a humidity of 40% to 70%, and in light and dark conditions for 12 hours respectively, and the animals could eat and drink freely. SD rats with good physical signs could be selected for this experiment after being adaptively fed for at least 3 days before administration. Table 23 Source and number of experimental animals
Any operation on the experimental animals in this experiment met the requirements of the "Regulations for the Administration of Affairs Concerning Experimental Animals" issued by the Ministry of Science and Technology of the People's Republic of China. In this experiment, a solvent control group, an administration group of compound in Embodiment 13 and an administration group of compound in Embodiment 14 were set up. Administration dosages of the administration group of compound in Embodiment 13 and the administration group of compound in Embodiment 14 were (10 mg/kg) once a day for 14 consecutive days, while the same amount of blank solvent was given to the blank control group, and administration volumes were all 15 mL/kg. After each administration, symptoms and degrees of toxic reaction of the animals were observed. Recovery observation was carried out for 7 days after the last administration. […]
During the experiment, experimenters and veterinarians should observe physical signs and health conditions of the experimental animals continuously. Any abnormal manifestations of the animals, such as pain, depression and decreased activity should be recorded in original records of the experiment. […]
During the experiment, all animals were observed beside cages at least twice a day, and observed continuously for 2 hours after the drug administration. During the drug administration, if the animals had serious side effects or died, observation results should be recorded in a corresponding form. […]
The animals should be weighed before daily drug administration for 14 consecutive days, and the weights were recorded in a corresponding form. Food intakes of the experimental animals were detected during the experiment. […]

Setting [3] is: SD rats, in words, compared with Enarodustat in the table.

“And” between values parts separate entries of the source, which are not always exact repeats. Equal values may be shown once.

What is called bioavailability is dose-corrected exposure relative to a reference, in per cent.

As to `O=C(O)CNC(=O)c1c(O)cc(C2CCc3ccccc3C2)n2ncnc12` (single isomer, unassigned) [Compound in Embodiment 13, [(7-hydroxy-5-(1,2,3,4-tetrahydronaphthalene-2-yl)-[1,2,4]triazolo[1,5-a]pyridine-8-carbonyl)amino]acetic acid], in data set [1] (setting [3]), the half-lives result is on record as “obviously longer” and the in-vivo exposure result is “higher”. Besides, the AUC in data set [1] (male, Sprague-Dawley, rat, plasma, male SD rats, route and dose not given, read-out: Concentration integral AUC) came to 19100 ng·h/mL. The half-life in data set [1] (male, Sprague-Dawley, rat, plasma, male SD rats, route and dose not given, read-out: Half-life period T1/2 (converted)) was 2.02 h. Further, the bioavailability in data set [1] (male, Sprague-Dawley, rat, plasma, oral, male SD rats, intragastric vs intravenous, read-out: Bioavailability F) was determined as 29.4%. Besides, the “EPO levels in serum of the rats” value in the data set on EPO (erythropoietin) (after 14 days of administration, in words) is “increased significantly”. For the same molecule, in the data set on EPO (erythropoietin) (after administration, compared with the group of positive drug Enarodustat, in words), the “EPO levels in plasma of the rats” value is recorded as “significantly higher”. In the data set on EPO (erythropoietin) (individual rats 1-6, 0.3 mg/mL, 10 mL/kg, once a day for 14 consecutive days, blood 4 hours after the drug on the 14th day, 2904.6 pg/mL was an upper limit of measurement), the “EPO level after 14 days of administration” value is ≥ 2904.6 pg/mL (3×) and 2697.4 pg/mL and 2658.5 pg/mL and 2772.1 pg/mL. In addition, in the data set with EPO (erythropoietin) (mean of 6 rats, 0.3 mg/mL, 10 mL/kg, once a day for 14 consecutive days, blood 4 hours after the drug on the 14th day, 2904.6 pg/mL was an upper limit of measurement), the “EPO level after 14 days of administration, Mean” value is 2807.0 pg/mL. The toxicities entry in data set [2] (compared with Enarodustat) is “lower than that of Enarodustat”. In data set [2], the gastrointestinal findings result was “no obvious gastrointestinal necrosis, and bleeding spots or flatulence in a black stomach part”.
